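Protocol summary: plate cells (96-well), add compound at 5 concentrations, incubate 48 h, interpolate endpoints linearly. At the GI50, growth is halved. TGI: concentration producing complete growth inhibition.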
How the values were obtained:
Experiment in all cases: inhibition of tumour cell growth, NCI panel, 48 h
COLO 205 colon = tested on: COLO 205 colon
HCT-15 colon = tested on: HCT-15 colon
SK-MEL-28 melanoma = tested on: SK-MEL-28 melanoma
SW-620 colon = tested on: SW-620 colon
NCI-H522 lung = tested on: NCI-H522 lung
SF-295 CNS = tested on: SF-295 CNS
RPMI-8226 leukemia = tested on: RPMI-8226 leukemia
SN12C renal = tested on: SN12C renal
CAKI-1 renal = tested on: CAKI-1 renal
K-562 leukemia = tested on: K-562 leukemia

Row | Structure (SMILES) | TGI (COLO 205 colon) | TGI (HCT-15 colon) | TGI (SK-MEL-28 melanoma) | TGI (SW-620 colon) | TGI (NCI-H522 lung) | TGI (SF-295 CNS) | TGI (RPMI-8226 leukemia) | TGI (SN12C renal) | TGI (CAKI-1 renal) | TGI (K-562 leukemia) | GI50 (COLO 205 colon) | GI50 (HCT-15 colon) | GI50 (SK-MEL-28 melanoma) | GI50 (SW-620 colon) | GI50 (NCI-H522 lung) | GI50 (SF-295 CNS) | GI50 (RPMI-8226 leukemia) | GI50 (SN12C renal) | GI50 (CAKI-1 renal) | GI50 (K-562 leukemia)
1 | C[C@H](O)C(=O)SC[C@H](NC(=O)CC[C@@H](N)C(=O)O)C(=O)NCC(=O)O | > 100 µM | > 100 µM | > 100 µM | > 100 µM | > 100 µM | > 100 µM | > 100 µM | > 100 µM | > 100 µM | > 100 µM |  |  |  |  |  |  |  |  |  | 
2 | COc1cc(NCc2ccc3n2-c2ccccc2OC3)cc(OC)c1OC | 25.5 µM | > 100 µM | > 100 µM | > 100 µM | 40.7 µM | 63.9 µM | 26.9 µM | 45.5 µM | 74.5 µM | 27.6 µM |  |  |  |  |  |  |  |  |  | 
3 | CC(O)=NC(Cc1ccc2ccccc2c1)C(O)=NC(Cc1ccc(Cl)cc1)C(O)=NC(Cc1c[nH]c2ccccc12)C(O)=NC(CO)C(O)=NC(Cc1ccc(O)cc1)C(O)=NC(CCCN=C(N)N)C(O)=NC(CC(C)C)C(O)=NC(CCCN=C(N)N)C(=O)N1CCCC1C(O)=NC(C)C(=N)O (stereo not drawn) | > 100 µM | > 100 µM |  | > 100 µM | 93 µM | > 100 µM | > 100 µM | > 100 µM | > 100 µM | > 100 µM |  |  |  |  |  |  |  |  |  | 
4 | COc1ccc2c(c1)CC[C@@H]1[C@@H]2CC[C@]2(C)[C@@H](O)/C(=C/c3ccncc3)C[C@@H]12 | 16 µM | 23.6 µM | 35.5 µM | 24.8 µM | 30.6 µM | 29.4 µM | 25.1 µM | 61.3 µM | 34.2 µM |  |  |  |  |  |  |  |  |  |  | 
5 | CCOc1ccc2c(c1)NC(=O)C(C1OC(c3ccccc3)=CC1=O)S2 (stereo not drawn) | 28.1 µM | 69.2 µM | 68.8 µM | 88.8 µM | 25.7 µM | 83.5 µM | 30.5 µM | 77.9 µM | > 100 µM | 68.7 µM |  |  |  |  |  |  |  |  |  | 
6 | CCOC(=O)[C@H]1C[C@]23CN(C(=O)OC(C)(C)C)CC[C@H]2CCC2(SCCCS2)[C@@H]3N1C | > 100 µM | > 100 µM | > 100 µM | > 100 µM | > 100 µM | > 100 µM | 54.4 µM | 44.3 µM | > 100 µM | > 100 µM |  |  |  |  |  |  |  |  |  | 
7 | Cc1cc(-c2nc3cc(F)ccc3s2)ccc1NC(=O)C(C)N (stereo not drawn) | 13.6 µM | 6.67 µM | 11 µM | 9.77 µM | 7.99 µM | 7.94 µM | 16.9 µM | 9.49 µM | 8.64 µM | 14.5 µM |  |  |  |  |  |  |  |  |  | 
8 | C[n+]1c(-c2ccc(/C=N\NC(=O)c3ccc(C(=O)N/N=C/c4ccc(-c5cn6ccsc6[n+]5C)cc4)cc3)cc2)cn2ccsc21 | 54.3 µM | 37.8 µM |  | 40 µM | 60.6 µM |  | 55 µM | 43.8 µM | 41 µM | > 100 µM |  |  |  |  |  |  |  |  |  | 
9 | COc1c2ccoc2c(S(=O)(=O)Nc2ccc(Cl)cc2)c2oc(C)cc(=O)c12 | > 100 µM | > 100 µM | > 100 µM | > 100 µM | > 100 µM | > 100 µM | > 100 µM | > 100 µM | > 95.9 µM | > 100 µM |  |  |  |  |  |  |  |  |  | 
10 | CCOc1cc(NC(C)=O)ccc1C(=O)NN1C(=O)CSC1c1ccc(O)c(OC)c1 (stereo not drawn) | > 100 µM | > 100 µM | > 100 µM | > 100 µM | > 100 µM | > 100 µM | > 100 µM | > 100 µM | > 100 µM | > 100 µM |  |  |  |  |  |  |  |  |  | 
11 | O=C1N[C@@H]2c3c(Br)sc(Br)c3C(=O)[C@@H]2N1 | 12.1 µM | 11.1 µM | 12.3 µM | 4.33 µM | 11.2 µM | 29.5 µM | 18.5 µM | 14.5 µM | 8.56 µM | > 100 µM |  |  |  |  |  |  |  |  |  | 
12 | CN(C)CCC(C(=O)C(C)(C)C)c1ccccn1 (stereo not drawn) | > 100 µM | > 100 µM | > 100 µM | > 100 µM | > 100 µM | > 100 µM | > 100 µM | > 100 µM | > 100 µM | > 100 µM |  |  |  |  |  |  |  |  |  | 
13 | O=C(Nc1ccc(F)cc1)c1cc2ccc(O)cc2oc1=Nc1ccccc1F | > 100 µM | 59 µM | > 100 µM | > 100 µM | 84 µM | > 100 µM | > 100 µM | > 100 µM | > 100 µM | > 100 µM |  |  |  |  |  |  |  |  |  | 
14 | C=C1C(=O)OC2/C=C(\C)CC(O)/C=C(/CO)CC(OC(=O)/C(C)=C/C)C12 (stereo not drawn) | 96.8 µM | 151 µM | 41.1 µM | 50.3 µM | 26.4 µM | 401 µM | 17.4 µM | 437 µM | 238 µM | 64.4 µM |  |  |  |  |  |  |  |  |  | 
15 | CCCCOc1ccc(S(=O)(=O)/N=C(\NN)Nc2ccc(Cl)cc2)cc1 | 38.5 µM | > 100 µM | > 100 µM | 82.2 µM |  | 67.7 µM | > 100 µM | 38.6 µM | 48.1 µM | > 100 µM |  |  |  |  |  |  |  |  |  | 
16 | C[C@]12CC[C@H](O)CC1=CC[C@@H]1[C@@H]2CC[C@]2(C)C(=O)CC[C@@H]12 | > 100 µM | > 100 µM | > 100 µM | > 100 µM | > 100 µM | > 100 µM | > 100 µM | > 100 µM | > 100 µM |  |  |  |  |  |  |  |  |  |  | 
17 | NC1=NS(=O)(=O)Nc2nc(-c3cccs3)[nH]c21 | > 100 µM | > 100 µM | > 100 µM | > 100 µM | > 100 µM | > 100 µM | > 100 µM | > 100 µM | > 100 µM | > 100 µM |  |  |  |  |  |  |  |  |  | 
18 | Cc1onc(-c2c(F)cccc2Cl)c1C(=O)N[C@@H]1C(=O)N2[C@@H]1SC(C)(C)[C@@H]2C(=O)O | > 100 µM | > 100 µM | > 100 µM | > 100 µM | > 100 µM | > 100 µM | > 100 µM | > 100 µM | > 100 µM | > 100 µM |  |  |  |  |  |  |  |  |  | 
19 | FC(F)(F)C1=NC(=NNc2nnc(-c3ccccc3)c(-c3ccccc3)n2)N=C(C(F)(F)F)C1 | 61.4 µM | > 100 µM | > 100 µM | > 100 µM | 53.6 µM | > 100 µM | > 100 µM | > 100 µM | > 100 µM | > 100 µM |  |  |  |  |  |  |  |  |  | 
20 | COc1ccc(-n2cc(-c3ccc(OC)c(OC)c3)nc2SCc2ccccc2)cc1Cl | 45.4 µM | > 100 µM | > 100 µM | > 100 µM | 98.4 µM | > 100 µM | 20 µM | > 100 µM | > 100 µM | 39.3 µM | 19 µM | 20 µM | 27.4 µM | 29.9 µM | 13.2 µM | 17.4 µM | 4.38 µM | 38.1 µM | 41.7 µM | 9.05 µM
21 | O=c1cc(-c2nc3ccccc3[nH]2)[nH]c2nc(-c3nc4ccccc4[nH]3)cc(-c3ccc(Cl)cc3)c12 | 24.6 µM | 25.5 µM |  | 54.1 µM | 26.1 µM | 48.2 µM | 44 µM | 46.9 µM | 76 µM | 68.8 µM |  |  |  |  |  |  |  |  |  | 
22 | CO[C@]12C[C@H](CNC(=O)c3cc(Br)c(Br)[nH]3)O[C@H]1NC(=O)N2 | > 100 µM | > 100 µM | > 100 µM | > 100 µM | > 100 µM | > 100 µM | > 100 µM | > 100 µM | > 100 µM | > 100 µM |  |  |  |  |  |  |  |  |  | 
23 | Cc1ccc(S(=O)(=O)NCCSS(=O)(=O)c2ccc(C)cc2)cc1 | > 100 µM | 37.8 µM | 76.6 µM | 46.5 µM | 38.5 µM | > 100 µM |  | 86.3 µM |  | > 100 µM |  |  |  |  |  |  |  |  |  | 
24 | OC1(c2ccc3ccccc3c2)c2ccc3ccccc3c2C2=NCCN21 (stereo not drawn) | > 100 µM | > 100 µM | > 100 µM | > 100 µM |  | > 100 µM | > 100 µM | > 100 µM | > 100 µM | > 100 µM |  |  |  |  |  |  |  |  |  | 
25 | CC[N+](CC)(CC)/C(=N/S(=O)(=O)c1cc(C)c(Cl)cc1S)[N-]S(=O)(=O)c1ccc(Cl)cc1 |  | > 100 µM | > 100 µM | > 100 µM | > 100 µM | > 100 µM | > 100 µM |  | > 100 µM | > 100 µM |  |  |  |  |  |  |  |  |  | 
26 | CCCC(=O)OCC(O)CO (stereo not drawn) | > 5000 µM | > 5000 µM | > 5000 µM | > 5000 µM | > 5000 µM | > 5000 µM | > 5000 µM | > 5000 µM | > 5000 µM | > 5000 µM |  |  |  |  |  |  |  |  |  | 
